Source: patent publication US9409864B2, “Sulfonamide TRPA1 receptor antagonists” (ARIO PHARMA LIMITED, priority 2013, dated 2016)

Target: T1, native human TRPA1 receptors (Homo sapiens, UniProt O75762)
T1 construct: stably expressing native human TRPA1 receptors were used; endogenous in cells; host or cells: A549 human lung adenocarcinoma epithelial cell line
Test: PF-4840154 (1 μM)-induced Ca2+ fluorescence measurements in A549 cell line
Format: cell-based
Details: for inhibition at 10 µM: 10 μM compound against 1 μM PF-4840154, A549 cells
Method: PF-4840154 (1 μM)-Induced Ca^2+ Fluorescence Measurements in A549 Cell Line
Human lung adenocarcinoma epithelial cell line (A549) stably expressing native human TRPA1 receptors were used. The cells were cultured in medium consisting of Eagle's minimal essential medium (EMEM) supplemented with 10% fetal bovine serum (FBS), penicillin (100 IU/ml), streptomycin ([…]), L-glutamine (2 mM), sodium bicarbonate (2.5 g/L) and HEPES (24 mM). Cells were kept at 37° C. in 5% CO2/humidified air. For the experiments the cells were seeded at a density of 16,000 cells/well into 96-well black, clear-bottom plates. After 24 hours incubation the cells were loaded with medium supplemented with 2.5 mM probenecid, 3 μM of the calcium sensitive fluorescent dye Fluo-4 AM and 0.01% pluronic acid, for 30 min at 37° C. Afterwards the loading solution was aspirated and 100 μl/well of assay buffer: Hank's Balanced Salt Solution (HBSS) supplemented with 2.5 mM probenecid and 500 μM Brilliant Black (Aldrich) was added. Stock solutions (100 mM) of ligands were made in Dimethyl Sulfoxide (DMSO) and stored at −20° C. Serial dilutions of ligands for experimental use were made in HBSS buffer. After placing both plates (cell culture and compound plate) into the FlexStation II (Molecular Device, Union City, Calif. 94587, US), fluorescence changes were measured. On-line additions were carried out in a volume of […]. To facilitate drug diffusion into the wells in antagonist type experiments, the studies were performed at 36.5° C. and three cycles of mixing (25 μl from each well moved up and down 3 times) were performed immediately after antagonist injection to the wells. All exemplified compounds were tested alone (to address residual agonistic activity) and against 1 μM of PF-4840154 to address inhibitory activity at the initial concentration of 10 μM. For selected examples the entire inhibitory concentration-response curves were constructed and the IC50 value calculated.
PF-4840154 (1 μM) increased [Ca^2+] in the vast majority (95%) of cultured cells which were thereby identified as TRPA1 expressing cells.

[1] = against PF-4840154 (1 μM)-evoked [Ca2+]i mobilization, A549 cells
[2] = against PF-4840154 (1 μM), A549 cells, cells printed in μM

T1 sequence (O75762 whole entry): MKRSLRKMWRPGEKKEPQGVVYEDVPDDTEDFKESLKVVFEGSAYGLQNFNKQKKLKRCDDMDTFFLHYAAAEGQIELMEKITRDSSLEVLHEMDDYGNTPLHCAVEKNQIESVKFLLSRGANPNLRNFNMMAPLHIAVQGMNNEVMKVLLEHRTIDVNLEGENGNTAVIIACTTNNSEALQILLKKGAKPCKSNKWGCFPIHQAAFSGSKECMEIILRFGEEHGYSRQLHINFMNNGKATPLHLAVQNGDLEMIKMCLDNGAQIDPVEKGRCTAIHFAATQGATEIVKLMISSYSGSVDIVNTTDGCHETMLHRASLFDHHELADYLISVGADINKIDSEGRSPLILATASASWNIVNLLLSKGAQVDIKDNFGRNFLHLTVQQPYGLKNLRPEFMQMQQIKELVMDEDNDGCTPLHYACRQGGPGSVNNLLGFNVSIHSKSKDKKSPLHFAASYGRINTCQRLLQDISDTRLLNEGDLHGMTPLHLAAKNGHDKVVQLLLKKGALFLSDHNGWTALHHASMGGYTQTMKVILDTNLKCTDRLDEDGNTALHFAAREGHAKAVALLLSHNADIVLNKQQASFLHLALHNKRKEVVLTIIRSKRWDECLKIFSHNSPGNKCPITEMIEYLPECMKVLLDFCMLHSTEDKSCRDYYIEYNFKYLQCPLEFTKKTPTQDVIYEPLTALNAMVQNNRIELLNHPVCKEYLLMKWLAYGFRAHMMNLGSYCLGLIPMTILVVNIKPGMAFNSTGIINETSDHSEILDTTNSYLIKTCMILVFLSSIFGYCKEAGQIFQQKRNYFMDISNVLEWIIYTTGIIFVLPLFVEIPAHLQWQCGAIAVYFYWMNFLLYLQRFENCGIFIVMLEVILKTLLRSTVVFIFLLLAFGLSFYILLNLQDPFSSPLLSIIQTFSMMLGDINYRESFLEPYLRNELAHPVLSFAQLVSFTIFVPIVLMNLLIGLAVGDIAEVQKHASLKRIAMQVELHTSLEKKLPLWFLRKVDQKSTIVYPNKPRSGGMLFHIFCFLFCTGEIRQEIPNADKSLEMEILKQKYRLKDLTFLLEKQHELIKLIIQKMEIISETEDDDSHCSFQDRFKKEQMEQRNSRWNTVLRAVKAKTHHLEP

| SMILES | inhibition at 10 µM | IC50 [1] | IC50 [2] | cultured cells with increased [Ca2+] (PF-4840154 1 μM, A549 cells) |
| --- | --- | --- | --- | --- |
| C=C(C(=O)NCc1cc(-c2ccc(OC(F)(F)F)cc2)nc(N2CCN(CC3CC3)CC2)c1)N(CC)S(=O)(=O)c1ccc(F)cc1 [Example 63, N-[[2-[4-(cyclopropylmethyl)piperazin-1-yl]-6-[4-(trifluoromethoxy)phenyl]-4-pyridyl]methyl]-2-[ethyl-(4-fluorophenyl)sulfonyl-amino]prop-2-enamide] | 99% | 0.175 µM |  |  |
| CCN(C1(C(=O)NCc2cccc(-c3ccc(C(F)(F)F)cc3)c2)CC1)S(=O)(=O)c1ccc(F)cc1 [Example 29, 1-[ethyl-(4-fluorophenyl)sulfonyl-amino]-N-[[3-[4-(trifluoromethyl)phenyl]phenyl]methyl]cyclopropanecarboxamide] | 100% | 0.138 µM |  |  |
| CN(C1(C(=O)NCc2cccc(-c3ccc(C(F)(F)F)cc3)c2)CC1)S(=O)(=O)c1ccc(F)cc1 [Example 58, 1-[(4-fluorophenyl)sulfonyl-methyl-amino]-N-[[3-[4-(trifluoromethyl)phenyl]phenyl]methyl]cyclopropanecarboxamide] | 100% | 0.16 µM |  |  |
| CCN(C1(C(=O)NCc2cc(-c3ccc(C(F)(F)F)cc3)nc(N3CCOCC3)c2)CC1)S(=O)(=O)c1ccc(F)cc1 [Example 62, 1-[ethyl-(4-fluorophenyl)sulfonyl-amino]-N-[[2-morpholino-6-[4-(trifluoromethyl)phenyl]-4-pyridyl]methyl] cyclopropanecarboxamide] | 100% | 0.66 µM |  |  |
| C=C(C(=O)NCc1cccc(-c2ccc(OC(F)(F)F)cc2)c1)N(CC)S(=O)(=O)c1ccc(Cl)s1 [Example 55, 2-[(5-chloro-2-thienyl)sulfonyl-ethyl-amino]-N-[[3-[4-(trifluoromethoxy)phenyl]phenyl]methyl]prop-2-enamide] | 100% | 0.031 µM |  |  |
| C=C(C(=O)NCc1cc(-c2ccc(C(F)(F)F)cc2)nc(N2CCOCC2)c1)N(CC)S(=O)(=O)c1ccc(Cl)s1 [Example 43, 2-[(5-chloro-2-thienyl)sulfonyl-ethyl-amino]-N-[[2-morpholino-6-[4-(trifluoromethyl)phenyl]-4-pyridyl]methyl]prop-2-enamide] | 100% | 0.048 µM |  |  |
| C=C(C(=O)NCc1cc(-c2ccc(C(F)(F)F)cc2)nc(N2CCOCC2)c1)N(CC)S(=O)(=O)c1ccc(F)cc1 [Example 42, 2-[ethyl-(4-fluorophenyl)sulfonyl-amino]-N-[[2-morpholino-6-[4-(trifluoromethyl)phenyl]-4-pyridyl]methyl]prop-2-enamide] | 100% | 0.104 µM |  |  |
| C=C(C(=O)NCc1cc(-c2ccc(OC(F)(F)F)cc2)nc(N2CCOCC2)c1)N(C)S(=O)(=O)c1ccc(Cl)cc1 [Example 16, 2-[(4-chlorophenyl)sulfonyl-methyl-amino]-N-[[2-morpholino-6-[4-(trifluoromethoxy)phenyl]-4-pyridyl]methyl]prop-2-enamide] | 99% | 0.457 µM |  |  |
| CCN(C1(C(=O)NCc2ccnc(-c3ccc(OC(F)(F)F)cc3)c2)CC1)S(=O)(=O)c1ccc(Cl)cc1 [Example 27, 1-[(4-chlorophenyl)sulfonyl-ethyl-amino]-N-[[2-[4-(trifluoromethoxy)phenyl]-4-pyridyl]methyl]cyclopropanecarboxamide] | 100% | 0.135 µM |  |  |
| CCN(C1(C(=O)NCc2cc(-c3ccc(OC(F)(F)F)cc3)nc(N3CCCC3)c2)CC1)S(=O)(=O)c1ccc(F)cc1 [Example 61, 1-[ethyl-(4-fluorophenyl)sulfonyl-amino]-N-[[2-pyrrolidin-1-yl-6-[4-(trifluoromethoxy)phenyl]-4-pyridyl]methyl]cyclopropanecarboxamide] | 95% | 0.784 µM |  |  |
| CCN(C1(C(=O)NCc2cc(-c3ccc(C(F)(F)F)cc3)nc(N3CCN(CC4CC4)CC3)c2)CC1)S(=O)(=O)c1ccc(F)cc1 [Example 64, N-[[2-[4-(cyclopropylmethyl)piperazin-1-yl]-6-[4-(trifluoromethyl)phenyl]-4-pyridyl]methyl]-1-[ethyl-(4-fluorophenyl)sulfonyl-amino]cyclopropanecarboxamide] | 99% | 0.338 µM |  |  |
| C=C(C(=O)NCc1ccnc(-c2ccc(C(F)(F)F)cc2)c1)N(CC)S(=O)(=O)c1ccc(F)c(F)c1 [Example 35, 2-[(3,4-difluorophenyl)sulfonyl-ethyl-amino]-N-[[2-[4-(trifluoromethyl)phenyl]-4-pyridyl]methyl]prop-2-enamide] | 100% | 0.058 µM |  |  |
| C=C(C(=O)NCc1ccnc(-c2ccc(C(F)(F)F)cc2)c1)N(C)S(=O)(=O)c1ccc(F)cc1 [Example 56, 2-[(4-fluorophenyl)sulfonyl-methyl-amino]-N-[[2-[4-(trifluoromethyl)phenyl]-4-pyridyl]methyl]prop-2-enamide] | 100% | 0.275 µM |  |  |
| O=C(NCc1cc(-c2ccc(OC(F)(F)F)cc2)nc(N2CCCC2)c1)C1(NS(=O)(=O)c2ccc(F)cc2)CC1 [Example 33, 1-[(4-fluorophenyl)sulfonylamino]-N-[[2-pyrrolidin-1-yl-6-[4-(trifluoromethoxy)phenyl]-4-pyridyl]methyl]cyclopropanecarboxamide] | 55% |  | > 2 µM |  |
| O=C(NCc1cc(-c2ccc(C(F)(F)F)cc2)nc(N2CCCC2)c1)C1(NS(=O)(=O)c2ccc(F)cc2)CC1 [Example 32, 1-[(4-fluorophenyl)sulfonylamino]-N-[[2-pyrrolidin-1-yl-6-[4-(trifluoromethyl)phenyl]-4-pyridyl]methyl] cyclopropanecarboxamide] | 80% |  | > 4 µM |  |
| CN(C1(C(=O)NCc2cccc(-c3ccc(OC(F)(F)F)cc3)c2)CC1)S(=O)(=O)c1ccc(F)cc1 [Example 57, 1-[(4-fluorophenyl)sulfonyl-methyl-amino]-N-[[3-[4-(trifluoromethoxy)phenyl]phenyl]methyl]cyclopropanecarboxamide] | 97% | 0.275 µM |  |  |
| C=C(C(=O)NCc1cccc(-c2ccc(C(F)(F)F)cc2)c1)N(C)S(=O)(=O)c1ccc(Cl)cc1 [Example 9, 2-[(4-chlorophenyl)sulfonyl-methyl-amino]-N-[[3-[4-(trifluoromethyl)phenyl]phenyl]methyl]prop-2-enamide] | 98% | 0.068 µM |  |  |
| CC(C)CNc1nc(N2CCN(CC3CCCOC3)CC2)ncc1C(=O)NCc1ccccc1 (centres unmarked) [PF-4840154, reference compound] |  |  |  | 95% |
| C/C=C(/C(=O)NCc1cccc(-c2ccc(C(F)(F)F)cc2)c1)N(C)S(=O)(=O)c1ccc(Cl)cc1 [Example 23, (Z)-2-[(4-chlorophenyl)sulfonyl-methyl-amino]-N-[[3-[4-(trifluoromethyl)phenyl]phenyl]methyl]but-2-enamide] | 98% | 0.437 µM |  |  |
| C=C(C(=O)NCc1cc(-c2ccc(OC(F)(F)F)cc2)nc(-c2ccc(OC(F)(F)F)cc2)c1)N(C)S(=O)(=O)c1ccc(Cl)cc1 [Example 20, N-[[2,6-bis[4-(trifluoromethoxy)phenyl]-4-pyridyl]methyl]-2-[(4-chlorophenyl)sulfonyl-methyl-amino]prop-2-enamide] | 96% | 0.251 µM |  |  |
| C/C=C(/C(=O)NCc1ccnc(-c2ccc(OC(F)(F)F)cc2)c1)N(CC)S(=O)(=O)c1ccc(F)cc1 [Example 22, (Z)-2-[ethyl-(4-fluorophenyl)sulfonyl-amino]-N-[[2-[4-(trifluoromethoxy)phenyl]-4-pyridyl]methyl]but-2-enamide] | 97% | 0.246 µM |  |  |
| CCOc1cc(CNC(=O)C2(N(CC)S(=O)(=O)c3ccc(F)cc3)CC2)cc(-c2ccc(C(F)(F)F)cc2)n1 [Example 52, N-[[2-ethoxy-6-[4-(trifluoromethyl)phenyl]-4-pyridyl]methyl]-1-[ethyl-(4-fluorophenyl)sulfonyl-amino]cyclopropanecarboxamide] | 99% | 0.087 µM |  |  |
| C=C(C(=O)NCc1ccnc(-c2ccc(OC(F)(F)F)cc2)c1)N(C)S(=O)(=O)c1ccc(F)cc1 [Example 2, 2-[(4-fluorophenyl)sulfonyl-methyl-amino]-N-[[2-[4-(trifluoromethoxy)phenyl]-4-pyridyl]methyl]prop-2-enamide] | 98% | 0.135 µM |  |  |
| C=C(C(=O)NCc1cc(-c2ccc(C(F)(F)F)cc2)nc(N(C)C)c1)N(CC)S(=O)(=O)c1cccs1 [Example 41, N-[[2-dimethylamino-6-[4-(trifluoromethyl)phenyl]-4-pyridyl]methyl]-2-(ethyl(2-thienylsulfonyl)amino)prop-2-enamide] | 96% | 0.135 µM |  |  |
